Measurements taken from patent publication US8062669B2, “Vectorization system comprising nanoparticles of homogenous size of at least one polymer and at least one positively charged polysaccharide and method for the preparation thereof” (Bioalliance Pharma, priority 2002, dated 2011).

How the values were obtained:
[1] = system: NIH 3T3 cells
Method: (§1) The NIH 3T3 and NIH 3T3 EWS-Fli-1 (adherent cells) were sown on 6-well plates at 100,000 cells per well in their culture medium without puromycin and the IW35 cells (cells in suspension) in 12-well plates at the rate of 750,000 cells per well.
(§2) For the first two cell types, the cells were sown 24 hours prior to their transfection. The medium was then eliminated and 100 μl of solution of the complex to be tested was brought into contact with the cells in 900 μl of medium.
(§3) Different concentrations of CTAB and chitosan of various molecular weight were tested.
(§4) Two controls were used and corresponded to the cells in the culture medium on the one hand and in the culture medium containing 100 μl of NaCl 150 mM on the other hand. After 24 hours of incubation, the measurements of cytotoxicity were performed by a test measuring the activity of the mitochondrial dehydrogenase enzymes of the living cells by oxidation of MTT (3-(4,5-dimethyl thiazol-2-yl)-2,5-diphenyl tetrazolium bromide; SIGMA) in formazan. The amount of formazan produced is directly proportional to the number of metabolically active live cells. The cells were washed with PBS and 1 ml of the medium was added. The cells were then incubated at 37° C. with 100 μl of a solution of MTT (5 mg/ml in PBS) for 3 hours. […] The medium was homogenized and the optical density was read at 560 nm (Dynatech MRX).

[2] = system: NIH 3T3 EWS-Fli1 cells
Method: as §1, §2, §3, §4

[3] = system: IW35 cells
Method: (§5) The NIH 3T3 and NIH 3T3 EWS-Fli-1 (adherent cells) were sown on 6-well plates at 100,000 cells per well in their culture medium without puromycin and the IW35 cells (cells in suspension) in 12-well plates at the rate of 750,000 cells per well. Other cells in suspension CEM 4FX were also tested. They were sown at 10,000 cells per well in 96-well plates.
as §3
(§6) Two controls were used and corresponded to the cells in the culture medium on the one hand and in the culture medium containing 100 μl of NaCl 150 mM on the other hand. After 24 hours of incubation, the measurements of cytotoxicity were performed by a test measuring the activity of the mitochondrial dehydrogenase enzymes of the living cells by oxidation of MTT (3-(4,5-dimethyl thiazol-2-yl)-2,5-diphenyl tetrazolium bromide; SIGMA) in formazan. The amount of formazan produced is directly proportional to the number of metabolically active live cells. The cells were washed with PBS and 1 ml of the medium was added. The cells were then incubated at 37° C. with 100 μl of a solution of MTT (5 mg/ml in PBS) for 3 hours. 1 ml of a lysis solution (10% SDS, 10 mM Tris) was then added to each well. The cells were incubated at 37° C. overnight. The medium was homogenized and the optical density was read at 560 nm (Dynatech MRX).

[4] = system: CEM 4FX cells
Method: as §5, §3, §6

SMILES: CCCCCCCCCCCCCCCC[N+](C)(C)C.[Br-] [CTAB, cetyl trimethyl ammonium bromide]
- toxicity [1]: notable toxicity
- toxicity [2]: notable toxicity
- toxicity [3]: elevated toxicity at low concentrations
- toxicity [4]: elevated toxicity at low concentrations
